Measurements taken from patent US7208153B2, “Method for the improvement of neuronal regeneration” (Neuraxo Biopharmaceuticals GmbH, priority 1997, dated 2007).
“Also recorded” adds a separate entry of the source.

Key:
[1] = tested on: basal membrane formation (collagen IV) in the lesion site; assay: Lesion-induced basal membrane (collagen IV) deposition after postcommissural fornix transection, immunohistochemistry; type: in vivo, Wistar rats
Experimental: In an effort to modulate postlesion BM deposition, either polyclonal antibodies against collagen IV (anti-Coll IV; n=14) or the iron chelator a, a′-dipyridyl (DPY; n=9) were injected locally into the lesion center immediately after transection. […] (13) and enhanced procollagen degradation (14). Control animals received a PBS injection (n=9) or were sham operated (n=3). Basal membrane formation was studied in response to antibody and drug treatment using immunohistochemical methods. […] At 2 weeks after lesion+injection only a very small number of Coll-immunreactive structures perpendicular to the tract course had developed (FIG. 1e, f).
Surgery. The left postcommissural fornix of 42 Wistar rats (180–210 g) was transected stereotactically at a distance of about 1 mm proximal to the target, the mammillary body, using a Scouten wire knife as described previously (9). The completeness of transection was confirmed by serial reconstruction of the lesion site for each of the animals. Immediately after transection animals received a topical application (1.6 μl) of either polyclonal antibodies against collagen, IV (anti-Coll IV, Biogenex, 50–100 μg/ml, n=14) or the iron chelator a, a′-dipyridyl (DPY, 1–10 mM, n=9). Substances were pressure injected (injection time 10 min) directly into the lesion site via a micropipette coupled to a microsyringe. Controls received equal amounts of phosphate-buffered saline (n=9) or sham operation (n=3).
Immunohistochemical staining. After a survival time of 4 days (d), 6 d, 2 weeks (w), 4 w and 6 w after surgery brains were removed, frozen in isopentan (−50/−60° C.) and cut into serial sagittal 10 μm thick sections. […]

[2] = tested on: transected postcommissural fornix axons; assay: Regeneration of transected postcommissural fornix axons across the lesion site (NF immunohistochemistry, anterograde tracing, electron microscopy); type: in vivo, Wistar rats
[3] = tested on: Na+-dependent action potentials of fornix fibers; set-up: species or system rats

Row | SMILES | lesion-induced BM deposition ([1]; local injection) | Coll-immunopositive laminae and blood vessels in the lesion center and the fornix stumps ([1]; single local injection immediately after transection, anti-Coll IV 80–160 ng or DPY 1.6–16 μmol, all examined survival time points) | Collagen IV deposition in the lesion site ([1]; two weeks postsurgery, FIG. 1e, f) | regeneration of transected fornix fibers across the lesion site (NF-immunohistochemistry) ([2]; 6 weeks postsurgery, FIG. 2) | elongation of fornix axons into and across the lesion center ([2]; between 2 and 4 weeks after lesion+injection, immunocytochemical staining) | stimulus-evoked extracellular response [3]
1 | c1ccc(-c2ccccn2)nc1 [DPY, a, a′-dipyridyl] | significantly reduced | massive and specific reduction | markedly reduced | fibers traverse the former lesion site | large numbers of axons entered and traversed the lesion center | 
2 | NC1=N[C@H](O)[C@H]2[C@H]3O[C@]4(O)O[C@@H]([C@@H](O)[C@@]2(N1)[C@@H]4O)[C@]3(O)CO [Tetrodotoxin] |  |  |  |  |  | blocks the stimulus-evoked response; also recorded: blocked
